Test results as given in patent publication US8901087B2, “Selective glycosidase inhibitors and uses thereof” (priority 2010, dated 2014).

biological target: human O-GlcNAcase (Homo sapiens (Human), UniProt O60502); test: Fluorescence-based assay for determination of KI values for inhibition of O-GlcNAcase activity; format: biochemical; settings: not given
Protocol: Assay for Determination of KI Values for Inhibition of O-GlcNAcase Activity
Experimental Procedure for Kinetic Analyses
Enzymatic reactions are carried out in a reaction containing 50 mM NaH2PO4, 100 mM NaCl and 0.1% BSA (pH 7.0) using 2 mM 4-Methylumbelliferyl N-acetyl-β-D-glucosaminide dihydrate (Sigma M2133) dissolved in ddH2O, as a substrate. The amount of purified human O-GlcNAcase enzyme used in the reaction is 0.7 nM. Test compound of varying concentrations is added to the enzyme prior to initiation of the reaction. The reaction is performed at room temperature in a 96-well plate and is initiated with the addition of substrate. […] The slope of product production is determined for each concentration of compound tested and plotted, using standard curve fitting algorithms for sigmoidal dose response curves. The values for a four parameter logistic curve fit of the data are determined.

Sequence of human O-GlcNAcase (O60502 whole entry): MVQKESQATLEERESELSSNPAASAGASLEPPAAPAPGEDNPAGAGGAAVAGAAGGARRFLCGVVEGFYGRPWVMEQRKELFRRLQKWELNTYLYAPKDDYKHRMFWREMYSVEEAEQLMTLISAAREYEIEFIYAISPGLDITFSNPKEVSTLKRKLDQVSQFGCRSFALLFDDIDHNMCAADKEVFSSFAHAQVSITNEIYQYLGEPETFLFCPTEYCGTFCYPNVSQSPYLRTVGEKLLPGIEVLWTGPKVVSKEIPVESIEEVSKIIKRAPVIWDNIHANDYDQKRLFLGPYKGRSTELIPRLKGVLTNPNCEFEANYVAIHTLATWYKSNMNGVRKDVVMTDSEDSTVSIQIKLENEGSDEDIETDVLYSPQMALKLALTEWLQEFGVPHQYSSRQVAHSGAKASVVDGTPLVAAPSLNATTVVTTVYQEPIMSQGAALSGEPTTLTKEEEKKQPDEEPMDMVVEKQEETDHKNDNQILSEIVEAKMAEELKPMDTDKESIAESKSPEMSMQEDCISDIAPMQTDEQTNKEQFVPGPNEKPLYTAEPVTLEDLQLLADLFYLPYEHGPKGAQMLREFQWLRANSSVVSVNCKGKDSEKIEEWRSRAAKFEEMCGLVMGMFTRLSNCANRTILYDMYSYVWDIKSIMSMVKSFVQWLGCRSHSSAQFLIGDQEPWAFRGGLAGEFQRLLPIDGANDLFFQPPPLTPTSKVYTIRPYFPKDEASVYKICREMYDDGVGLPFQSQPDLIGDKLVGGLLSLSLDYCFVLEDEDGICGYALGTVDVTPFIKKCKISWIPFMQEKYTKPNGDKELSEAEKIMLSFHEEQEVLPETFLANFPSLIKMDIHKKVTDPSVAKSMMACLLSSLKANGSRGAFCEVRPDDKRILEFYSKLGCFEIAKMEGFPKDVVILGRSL

SMILES | Ki [nM]
CON(C)C1=N[C@@H]2[C@@H](O)[C@H](O)[C@@H]([C@H](C)O)O[C@@H]2S1 (single isomer, unassigned) [Example 51] | 5.1

same assay, conditions: purified human O-GlcNAcase, 4-Methylumbelliferyl N-acetyl-β-D-glucosaminide substrate, pH 7.0, Cheng-Prusoff; read-out: Fluorescence-based hOGA Ki

SMILES | Ki [nM]
CN(C)C1=N[C@@H]2[C@@H](O)[C@H](O)[C@@H](C(C)(O)C(F)(F)F)O[C@@H]2S1 (mixture of isomers) [Example 203, (3aR,5S,6S,7R,7aR)-2-(dimethylamino)-5-((S)-1,1,1-trifluoro-2-hydroxypropan-2-yl)-5,6,7,7a-tetrahydro-3aH-pyrano[3,2-d]thiazole-6,7-diol] | 3.16
CNC1=N[C@@H]2[C@@H](O)[C@H](O)[C@@H]([C@H](C)O)O[C@@H]2S1 (single isomer, unassigned) [Example 13] | 0.4
C=CC[C@H](O)[C@H]1O[C@@H]2SC(NC)=N[C@@H]2[C@@H](O)[C@@H]1O (single isomer, unassigned) [Example 25] | 0.7
CCNC1=N[C@@H]2[C@@H](O)[C@H](O)[C@@H]([C@H](C)O)O[C@@H]2S1 (single isomer, unassigned) [Example 27] | 0.12
C=C[C@H](O)[C@H]1O[C@@H]2SC(NCCC)=N[C@@H]2[C@@H](O)[C@@H]1O (single isomer, unassigned) [Example 42] | 1.03
CCCNC1=N[C@H]2C(O[C@H]([C@@H](O)CC)[C@@H](O)[C@@H]2O)S1 (single isomer, unassigned) [Example 47] | 6.4
C[C@H](O)[C@H]1O[C@@H]2SC(NCC3CC3)=N[C@@H]2[C@@H](O)[C@@H]1O (single isomer, unassigned) [Example 53] | 0.7
CCN(C)C1=N[C@H]2C(O[C@H]([C@H](C)O)[C@@H](O)[C@@H]2O)S1 (single isomer, unassigned) [Example 57] | 0.33
C=CC(O)C1O[C@@H]2SC(N(C)CC)=N[C@@H]2[C@@H](O)[C@@H]1O (single isomer, unassigned) [Example 61] | 2.46
C=C[C@H](O)[C@H]1O[C@@H]2SC(N(C)C)=N[C@@H]2[C@@H](O)[C@@H]1O (single isomer, unassigned) [Example 63] | 0.22
C=C(C)[C@H](O)[C@H]1O[C@@H]2SC(N(C)C)=N[C@@H]2[C@@H](O)[C@@H]1O (single isomer, unassigned) [Example 65] | 0.45
C=CC[C@H](O)[C@H]1O[C@@H]2SC(N(C)C)=N[C@@H]2[C@@H](O)[C@@H]1O (single isomer, unassigned) [Example 67] | 1.25
CCC[C@H](O)[C@H]1O[C@@H]2SC(N(C)C)=N[C@@H]2[C@@H](O)[C@@H]1O (single isomer, unassigned) [Example 69] | 9.36
CCCC[C@H](O)[C@H]1O[C@@H]2SC(N(C)C)=N[C@@H]2[C@@H](O)[C@@H]1O (single isomer, unassigned) [Example 71] | 9.12
C[C@H](O)[C@H]1O[C@@H]2SC(N3CCC3)=N[C@@H]2[C@@H](O)[C@@H]1O (single isomer, unassigned) [Example 76] | 0.18
C=C[C@H](O)[C@H]1O[C@@H]2SC(N3CCC3)=N[C@@H]2[C@@H](O)[C@@H]1O (single isomer, unassigned) [Example 80] | 0.5

SMILES | Ki [nM]
C=CC[C@H](O)[C@H]1O[C@@H]2SC(N3CCC3)=N[C@@H]2[C@@H](O)[C@@H]1O (single isomer, unassigned) [Example 82] | 5.84
C[C@H](O)[C@H]1O[C@@H]2SC(N3CCCC3)=N[C@@H]2[C@@H](O)[C@@H]1O (single isomer, unassigned) [Example 91] | 0.53
CNC1=N[C@@H]2[C@@H](O)[C@H](O)[C@@H]([C@@H](C)F)O[C@@H]2S1 (single isomer, unassigned) [Example 181] | 0.8
CCN(C)C1=N[C@@H]2[C@@H](O)[C@H](O)[C@@H]([C@@H](O)C(F)(F)F)O[C@@H]2S1 (single isomer, unassigned) [Example 211] | 0.44
C[C@H](O)[C@H]1O[C@@H]2SC(N(C)C)=N[C@@H]2[C@@H](O)[C@@H]1O [Example 1, (3aR,5R,6S,7R,7aR)-2-(Dimethylamino)-5-((S)-1-hydroxyethyl)-5,6,7,7a-tetrahydro-3aH-pyrano[3,2-d]thiazole-6,7-diol] | 0.17
CCCNC1=N[C@@H]2[C@@H](O)[C@H](O)[C@@H]([C@H](C)O)O[C@@H]2S1 [Example 2, (3aR,5R,6S,7R,7aR)-5-((S)-1-hydroxyethyl)-2-(propylamino)-5,6,7,7a-tetrahydro-3aH-pyrano[3,2-d]thiazole-6,7-diol] | 0.05
CNC1=N[C@@H]2[C@@H](O)[C@H](O)[C@@H](C(C)(C)O)O[C@@H]2S1 [Example 3, (3aR,5S,6S,7R,7aR)-5-(2-Hydroxypropan-2-yl)-2-(methylamino)-5,6,7,7a-tetrahydro-3aH-pyrano[3,2-d]thiazole-6,7-diol] | 0.9
CN(C)C1=N[C@@H]2[C@@H](O)[C@H](O)[C@@H](C(C)(C)O)O[C@@H]2S1 [Example 4, (3aR,5S,6S,7R,7aR)-2-(dimethylamino)-5-(2-hydroxypropan-2-yl)-5,6,7,7a-tetrahydro-3aH-pyrano[3,2-d]thiazole-6,7-diol] | 3.1
CC[C@H]1O[C@@H]2SC(NC)=N[C@@H]2[C@@H](O)[C@@H]1O [Example 8, (3aR,5R,6S,7R,7aR)-5-Ethyl-2-(methylamino)-5,6,7,7a-tetrahydro-3aH-pyrano[3,2-d]thiazole-6,7-diol] | 0.68
CN(C)C1=N[C@@H]2[C@@H](O)[C@H](O)[C@@H]([C@@H](O)C(F)(F)F)O[C@@H]2S1 [Example 11, (3aR,5S,6S,7R,7aR)-2-(dimethylamino)-5-((R)-2,2,2-trifluoro-1-hydroxyethyl)-5,6,7,7a-tetrahydro-3aH-pyrano[3,2-d]thiazole-6,7-diol] | 0.3
CC(C)(O)[C@H]1O[C@@H]2SC(N3CCC3)=N[C@@H]2[C@@H](O)[C@@H]1O [Example 77, (3aR,5S,6S,7R,7aR)-2-(azetidin-1-yl)-5-(2-hydroxypropan-2-yl)-5,6,7,7a-tetrahydro-3aH-pyrano[3,2-d]thiazole-6,7-diol] | 16.3
CNC1=N[C@@H]2[C@@H](O)[C@H](O)[C@@H]([C@@H](O)C(F)(F)F)O[C@@H]2S1 [Example 95, (3aR,5S,6S,7R,7aR)-2-(methylamino)-5-((R)-2,2,2-trifluoro-1-hydroxyethyl)-5,6,7,7a-tetrahydro-3aH-pyrano[3,2-d]thiazole-6,7-diol] | 0.16
CCCNC1=N[C@@H]2[C@@H](O)[C@H](O)[C@@H]([C@@H](O)C(F)(F)F)O[C@@H]2S1 [Example 97, (3aR,5S,6S,7R,7aR)-2-(propylamino)-5-((R)-2,2,2-trifluoro-1-hydroxyethyl)-5,6,7,7a-tetrahydro-3aH-pyrano[3,2-d]thiazole-6,7-diol] | 0.17
CON(C)C1=N[C@@H]2[C@@H](O)[C@H](O)[C@@H]([C@@H](O)C(F)(F)F)O[C@@H]2S1 [Example 98, (3aR,5S,6S,7R,7aR)-2-(methoxy(methyl)amino)-5-((R)-2,2,2-trifluoro-1-hydroxyethyl)-5,6,7,7a-tetrahydro-3aH-pyrano[3,2-d]thiazole-6,7-diol] | 1.43
C[C@@H](O)[C@H]1O[C@@H]2SC(N(C)C)=N[C@@H]2[C@@H](O)[C@@H]1O [Example 104, (3aR,5R,6S,7R,7aR)-2-(dimethylamino)-5-((R)-1-hydroxyethyl)-5,6,7,7a-tetrahydro-3aH-pyrano[3,2-d]thiazole-6,7-diol] | 3.63
